Results taken from paper PMC8908490 (ACS Omega, 2022).
pIC50: −log10 of the molar value.

Experiments:
interleukin-1β = details: cell-based interleukin-1β assay; cited from earlier work
[1] = cited from earlier work
[2] = HPLC-based chemical stability at different pH; details: for chemical stability (in words): acidic conditions, pH 1, 37 °C
human NLRP3-NACHT domain = human NLRP3-NACHT domain (Homo sapiens, UniProt Q96P20); details: presence of ADP
human NLRP3-NACHT domain, sequence (Q96P20 220-536 limits assumed): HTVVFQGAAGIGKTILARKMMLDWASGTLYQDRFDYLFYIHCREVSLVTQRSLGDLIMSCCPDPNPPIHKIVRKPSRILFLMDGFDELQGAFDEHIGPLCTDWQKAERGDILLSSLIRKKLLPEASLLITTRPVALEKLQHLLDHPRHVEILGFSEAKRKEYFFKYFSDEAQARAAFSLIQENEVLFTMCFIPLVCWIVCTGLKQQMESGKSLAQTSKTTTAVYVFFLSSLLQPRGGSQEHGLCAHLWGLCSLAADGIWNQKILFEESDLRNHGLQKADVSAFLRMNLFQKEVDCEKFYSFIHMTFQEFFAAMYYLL

SMILES: CC(C)(O)c1coc(S(=O)(=O)NC(=O)Nc2c3c(cc4c2CCC4)CCC3)c1 [Compound 1, N-((1,2,3,5,6,7-Hexahydro-s-indacen-4-yl)carbamoyl)-4-(2-hydroxypropan-2-yl)furan-2-sulfonamide]
- pIC50 (interleukin-1β): 8.12
- plasma half-life [1]: 3.27 h

SMILES: CC(C)(O)c1csc(S(=O)(=O)NC(=O)Nc2c3c(cc4c2CCC4)CCC3)c1 [Compound 2, N-((1,2,3,5,6,7-Hexahydro-s-indacen-4-yl)carbamoyl)-4-(2-hydroxypropan-2-yl)thiophene-2-sulfonamide]
- chemical stability (in words) [2]: similarly stable

SMILES: O=C(Nc1c2c(cc3c1CCC3)CCC2)NS(=O)(=O)c1ccco1 [Compound 3, N-((1,2,3,5,6,7-Hexahydro-s-indacen-4-yl)carbamoyl)furan-2-sulfonamide]
- chemical stability (in words) [2]: unstable

SMILES: O=C(Nc1c2c(cc3c1CCC3)CCC2)NS(=O)(=O)c1cccs1 [Compound 4, N-((1,2,3,5,6,7-Hexahydro-s-indacen-4-yl)carbamoyl)thiophene-2-sulfonamide]
- fold shorter half-life than benzene analogue ([2]; pH 1, 4 versus 8, 6 versus 9): 12 fold

SMILES: CC(C)S(=O)(=O)NC(=O)Nc1c2c(cc3c1CCC3)CCC2 [Compound 5, N-((1,2,3,5,6,7-Hexahydro-s-indacen-4-yl)carbamoyl)propane-2-sulfonamide]
- chemical stability (in words) [2]: unstable

SMILES: O=C(Nc1c2c(cc3c1CCCC3)CCCC2)NS(=O)(=O)c1ccccc1 [Compound 7, N-((1,2,3,4,5,6,7,8-Octahydroanthracen-9-yl)carbamoyl)benzenesulfonamide]
- chemical stability (in words) [2]: similarly unstable
- NLRP3 binding by SPR (in words) (human NLRP3-NACHT domain): total loss of binding ability
